From ChEMBL document CHEMBL3508693 (2016)

Tests used:
[1] = Terminal elimination half-life of SPP100 following single oral dose of SPP100 75 mg capsule studied in healthy human; format: ADME, organism-based; settings: plasma
[2] = % SPP100 (0-72h) recovered in faeces following single intravenous dose of [14C] aliskiren hemifumarate at 1 mg.Kg-1 level in marmoset; format: ADME, organism-based, Callithrix jacchus, Feces; settings: in vivo
CYP2C19 = CYP2C19 (Homo sapiens, UniProt P33261); assay: Inhibitory activity of 200 uM SPP100 on 1375 Pmoles of cDNA-derived CYP2C19 enzyme in microsome prepared from human lymphoblastoid cell line; format: ADME, microsomes; parameters: conc 200 uM, interact cpd conc 50 uM; settings: probe (S)-mephenytoin (50 uM)
Chain of CYP2C19 (P33261 whole entry): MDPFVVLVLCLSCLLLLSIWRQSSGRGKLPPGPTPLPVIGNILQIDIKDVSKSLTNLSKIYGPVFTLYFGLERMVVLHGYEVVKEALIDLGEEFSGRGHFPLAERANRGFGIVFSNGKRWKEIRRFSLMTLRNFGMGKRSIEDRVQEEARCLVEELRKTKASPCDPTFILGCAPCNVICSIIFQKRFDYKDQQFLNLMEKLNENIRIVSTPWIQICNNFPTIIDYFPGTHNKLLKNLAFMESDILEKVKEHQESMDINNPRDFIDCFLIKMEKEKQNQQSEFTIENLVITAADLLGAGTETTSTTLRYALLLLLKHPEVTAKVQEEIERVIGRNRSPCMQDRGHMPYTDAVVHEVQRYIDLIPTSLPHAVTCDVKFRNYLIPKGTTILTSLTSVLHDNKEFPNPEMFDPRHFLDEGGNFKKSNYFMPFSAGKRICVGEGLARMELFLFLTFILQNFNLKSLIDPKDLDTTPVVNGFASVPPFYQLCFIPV

[3] = Mean excretion of radioactivity (0-72h) in urine and faeces following single oral dose of 500 mg.Kg-1 [14C] aliskiren hemifumarate in mouse; format: ADME, organism-based, TgRasH2, Urine/Feces; settings: in vivo
[4] = Apparent Km value of metabolism of [14C] aliskiren hemifumarate studied in human liver microsome; format: ADME; settings: microsomes
[5] = Tmax of unlabeled aliskiren hemifumarate following single intravenous dose of aliskiren hemifumarate at 10 mg.Kg-1 level in mouse; format: ADME, organism-based; settings: TgRasH2, mouse, plasma

Compound: COCCCOc1cc(C[C@@H](C[C@H](N)[C@@H](O)C[C@H](C(=O)NCC(C)(C)C(N)=O)C(C)C)C(C)C)ccc1OC
- half-life [1]: 54 h
- Compound recovery [2]: 36%
- inhibition at 200 µM (CYP2C19): -15.4%

Compound: COCCCOc1cc(C[C@@H](C[C@H](N)[C@@H](O)C[C@H](C(=O)NCC([14CH3])([14CH3])C(N)=O)C(C)C)C(C)C)ccc1OC.O=C(O)/C=C/C(=O)O
- Radiolabel recovery [3]: 89.8%
- Km [4]: 43.8 µM

Compound: COCCCOc1cc(C[C@@H](C[C@H](N)[C@@H](O)C[C@H](C(=O)NCC(C)(C)C(N)=O)C(C)C)C(C)C)ccc1OC.COCCCOc1cc(C[C@@H](C[C@H](N)[C@@H](O)C[C@H](C(=O)NCC(C)(C)C(N)=O)C(C)C)C(C)C)ccc1OC.O=C(O)/C=C/C(=O)O [ALISKIREN FUMARATE]
- Tmax [5]: 4.98 min
